Measurements taken from patent US9956319B2, “Compositions useful as antibiofilm or antimicrobial agents and methods using same” (BAYLOR COLLEGE OF MEDICINE, priority 2012, dated 2018).

Key:
[1] = system: Klebsiella pneumoniae; assay: Bacterial colony counts extracted from impregnated central venous catheters after exposure to bacteria; assay type: cell-based; settings: catheter impregnated with 25 mg/ml, 10^5 cfu/ml suspension in TSB, 37° C., 24 hours
Experimental: (§1) To evaluate the anticolonization/antimicrobial activity of central venous catheters treated with dihydrolipoic acid, segments of 7 French triple lumen polyurethane central venous catheters were impregnated with dihydrolipoic acid using the same patented method described in Example 1 (U.S. Pat. No. 6,589,591) with 25 mg/ml (final solution volume) of the agent. After the impregnation process and drying, Catheter segments were then placed in the impregnating solution at 55° C. with agitation for 1 hour in the dark. Catheter segments were then removed from the solution and dried under a fume hood overnight in the dark. Catheter segments were rinsed with deionized water the next day and let dry for another 18 hours in the dark. After the impregnation process and drying, one-centimeter segments of impregnated catheters were individually placed in 1 ml of 10^5 cfu/ml suspensions of MRSE, MRSA, or K. pneumoniae in trypticase soy broth (TSB) at 37° C. for 24 hours. One-centimeter segments of non-impregnated catheters were also incubated individually in each bacterial suspension at 37° C. for 24 hours as controls. […]
(§2) Aliquots of each suspension and subsequent dilutions were cultured quantitatively.

[2] = system: Pseudomonas aeruginosa; assay: as above; assay type: cell-based; settings: catheter impregnated with 100 mg/ml, 10^5 cfu/ml suspension in TSB, 37° C., 24 hours
Experimental: as §1, with “lipoamide,” for “dihydrolipoic acid,”, “lipoamide” for “dihydrolipoic acid”, “100” for “25”, “P. aeruginosa” for “K. pneumoniae”
as §2

Row | Structure (SMILES) | Mean bacterial colony counts extracted from catheter [1] | Mean bacterial colony counts extracted from catheter [2]
1 | O=C(O)CCCCC(S)CCS (centres unmarked) [Dihydrolipoic acid, 6,8-dimercaptooctanoic acid] | 280000 | –
2 | NC(=O)CCCCC1CCSS1 (centres unmarked) [Lipoamide, lipoamide] | – | 210000
